Test results as given in US20220040115A1, “PHARMACEUTICAL COMPOSITIONS AND DELIVERY SYSTEMS FOR PREVENTION AND TREATMENT OF CANDIDIASIS” (INDIAN INSTITUTE OF TECHNOLOGY HYDERABAD, priority 2018, published 2022).

Legend:
[1] = system: Candida albicans; experiment: Inhibition zone test of oil compositions on Candida albicans (Example 1); assay type: cell-based; parameters: unit not given here
Method: Different two-oil and three-oil compositions with varying ratios were prepared in order to check the performance of the oils for inhibition of Candida albicans. Fluconazole and saline were used as positive and negative controls, respectively.

[2] = system: Candida albicans; experiment: Antifungal activity (zone of inhibition) of microcapsules and bacterial cellulose loaded microcapsules; assay type: cell-based
Excerpt: The anti-fungal activity of the microcapsules and cellulosic matrices were checked for inhibition of Candida albicans. The studies are depicted in FIG. 15, FIG. 16, FIG. 17 and FIG. 18.

Row | Structure (SMILES) | Inhibition zone diameter ([1]; volume 50 μL, 24 hrs) | Inhibition zone diameter ([1]; volume 100 μL, 24 hrs) | Inhibition zone diameter ([1]; volume 150 μL, 24 hrs) | Inhibition zone diameter ([1]; volume 200 μL, 24 hrs) | Inhibition zone diameter ([1]; 200 μg, time period 24 hrs) | Inhibition zone diameter ([1]; 200 μg, time period 48 hrs) | Inhibition zone diameter ([1]; 200 μg, time period 72 hrs) | Zone of inhibition ([2]; 24 hrs) | Zone of inhibition ([2]; 48 hrs) | Zone of inhibition ([2]; 72 hrs)
1 | Cc1ccc(C(C)C)c(O)c1 [Thymol, 2-isopropyl-5-methylphenol] | 2.5 | 3.1 | 3.9 | 4.2 | – | – | – | – | – | –
2 | C=CCc1ccc(O)c(OC)c1 [Eugenol, 2-Methoxy-4-(prop-2-en-1-yl) phenol] | 2.0 | 3.5 | 4.1 | 4.3 | – | – | – | – | – | –
3 | OC(Cn1cncn1)(Cn1cncn1)c1ccc(F)cc1F [Fluconazole] | – | – | – | – | 5.3 | 4.5 | 3.4 | 3.5 ± 0.1 | 1.8 ± 0.1 | 1.5 ± 0.1
4 | Cc1ccc(C(C)C)cc1O [Carvacrol, 5-Isopropyl-2-methylphenol] | 3.2 | 3.8 | 4.5 | 5.1 | – | – | – | – | – | –
